# Test results as given in ChEMBL document CHEMBL1153550, “In vitro study of Candida tropicalis isolates exhibiting paradoxical growth in the presence of high concentrations of caspofungin” (2007).
# Active and inactive are the calls of the source. The rule behind the calls is not given here.
# Tests used:
# [1] = test system: Candida tropicalis; assay: Antifungal activity against > 2 x 10^7 CFU/ml Candida tropicalis isolate 10 in antibiotic medium 3 assessed as partial growth after 24 hrs by broth microdilution method; assay type: functional, organism-based
# [2] = test system: Candida tropicalis; assay: Antifungal activity against > 2 x 10^7 CFU/ml Candida tropicalis isolate 3 in antibiotic medium 3 assessed as partial growth after 24 hrs by broth microdilution method; assay type: functional, organism-based
# [3] = test system: Candida tropicalis; assay: Antifungal activity against > 2 x 10^7 CFU/ml Candida tropicalis isolate 1 in antibiotic medium 3 assessed as partial growth after 24 hrs by broth microdilution method; assay type: functional, organism-based
# [4] = test system: Candida tropicalis; assay: Antifungal activity against > 2 x 10^7 CFU/ml Candida tropicalis isolate 11 in RPMI 1640 medium assessed as partial growth after 24 hrs by broth microdilution method; assay type: functional, organism-based
# [5] = test system: Candida tropicalis; assay: Antifungal activity against > 2 x 10^7 CFU/ml Candida tropicalis isolate 5 in RPMI 1640 medium assessed as partial growth after 24 hrs by broth microdilution method; assay type: functional, organism-based
# [6] = test system: Candida tropicalis; assay: Antifungal activity against > 2 x 10^7 CFU/ml Candida tropicalis isolate 1 in RPMI 1640 medium assessed as partial growth after 24 hrs by broth microdilution method; assay type: functional, organism-based
# [7] = test system: Candida tropicalis; assay: Antifungal activity against 2 x 10^7 CFU/ml Candida tropicalis isolate 12 in antibiotic medium 3 after 24 hrs by broth microdilution method; assay type: functional; conditions: isolate 12, 24 h
# [8] = test system: Candida tropicalis; assay: Antifungal activity against 2 x 10^7 CFU/ml Candida tropicalis isolate 11 in antibiotic medium 3 after 24 hrs by broth microdilution method; assay type: functional; conditions: isolate 11, 24 h
# [9] = test system: Candida tropicalis; assay: Antifungal activity against 2 x 10^7 CFU/ml Candida tropicalis isolate 8 in antibiotic medium 3 after 24 hrs by broth microdilution method; assay type: functional; conditions: isolate 8, 24 h
# [10] = test system: Candida tropicalis; assay: Antifungal activity against 2 x 10^7 CFU/ml Candida tropicalis isolate 7 in antibiotic medium 3 after 24 hrs by broth microdilution method; assay type: functional; conditions: isolate 7, 24 h
# [11] = test system: Candida tropicalis; assay: Antifungal activity against 2 x 10^7 CFU/ml Candida tropicalis isolate 4 in antibiotic medium 3 after 24 hrs by broth microdilution method; assay type: functional; conditions: isolate 4, 24 h
# [12] = test system: Candida tropicalis; assay: Antifungal activity against 2 x 10^7 CFU/ml Candida tropicalis isolate 2 in antibiotic medium 3 after 24 hrs by broth microdilution method; assay type: functional; conditions: isolate 2, 24 h
# [13] = test system: Candida tropicalis; assay: Antifungal activity against 2 x 10^7 CFU/ml Candida tropicalis isolate 11 in RPMI 1640 medium after 24 hrs by broth microdilution method; assay type: functional; conditions: isolate 11, 24 h
# [14] = test system: Candida tropicalis; assay: Antifungal activity against 2 x 10^7 CFU/ml Candida tropicalis isolate 10 in RPMI 1640 medium after 24 hrs by broth microdilution method; assay type: functional; conditions: isolate 10, 24 h
# [15] = test system: Candida tropicalis; assay: Antifungal activity against 2 x 10^7 CFU/ml Candida tropicalis isolate 4 in RPMI 1640 medium after 24 hrs by broth microdilution method; assay type: functional; conditions: isolate 4, 24 h
# [16] = test system: Candida tropicalis; assay: Antifungal activity against 2 x 10^7 CFU/ml Candida tropicalis isolate 3 in RPMI 1640 medium after 24 hrs by broth microdilution method; assay type: functional; conditions: isolate 3, 24 h
# [17] = test system: Candida tropicalis; assay: Antifungal activity against 2 x 10^7 CFU/ml Candida tropicalis isolate 1 in RPMI 1640 medium after 24 hrs by broth microdilution method; assay type: functional; conditions: isolate 1, 24 h
# [18] = test system: Candida tropicalis; assay: Antifungal activity against 10^5 CFU/ml Candida tropicalis isolate 13 in RPMI 1640 medium at =< 0.09 ug/ml after 24 hrs followed by incubation in drug free medium for 48 hrs by broth microdilution method; assay type: functional, organism-based
# [19] = test system: Candida tropicalis; assay: Antifungal activity against 10^5 CFU/ml Candida tropicalis isolate 1 in RPMI 1640 medium at 12.5 ug/ml treated for 48 hrs followed by incubation in drug free medium for 48 hrs by broth microdilution method; assay type: functional, organism-based
# [20] = test system: Candida tropicalis; assay: Antifungal activity against 10^5 CFU/ml Candida tropicalis isolate 2 in RPMI 1640 medium at 12.5 ug/ml treated for 48 hrs followed by incubation in drug free medium for 48 hrs by broth microdilution method; assay type: functional, organism-based
# [21] = test system: Candida tropicalis; assay: Antifungal activity against 10^5 CFU/ml Candida tropicalis isolate 6 in RPMI 1640 medium at 12.5 ug/ml treated for 48 hrs followed by incubation in drug free medium for 48 hrs by broth microdilution method; assay type: functional, organism-based
# [22] = test system: Candida tropicalis; assay: Antifungal activity against 10^5 CFU/ml Candida tropicalis isolate 7 in RPMI 1640 medium at 12.5 ug/ml treated for 48 hrs followed by incubation in drug free medium for 48 hrs by broth microdilution method; assay type: functional, organism-based
# [23] = test system: Candida tropicalis; assay: Antifungal activity against Candida tropicalis isolate 5 in RPMI 1640 medium assessed as paradoxical growth at 6.25 ug/ml after 48 hrs by broth microdilution method; assay type: functional, organism-based
# [24] = test system: Candida tropicalis; assay: Antifungal activity against Candida tropicalis isolate 7 in RPMI 1640 medium assessed as paradoxical growth at 12.5 ug/ml after 24 hrs by broth microdilution method; assay type: functional, organism-based
# [25] = test system: Candida tropicalis; assay: Antifungal activity against Candida tropicalis isolate 8 in RPMI 1640 medium assessed as paradoxical growth at 12.5 ug/ml after 24 hrs by broth microdilution method; assay type: functional, organism-based
# [26] = test system: Candida tropicalis; assay: Antifungal activity against Candida tropicalis ATCC 750 in RPMI 1640 medium assessed as paradoxical growth at 12.5 ug/ml after 24 hrs by broth microdilution method; assay type: functional, organism-based
# [27] = test system: Candida tropicalis; assay: Antifungal activity Candida tropicalis ATCC 750 in RPMI 1640 medium at 12.5 ug/ml after 24 hrs by time-kill assay; assay type: functional, organism-based
# [28] = test system: Candida tropicalis; assay: Antifungal activity Candida tropicalis isolate 4 in RPMI 1640 medium at 0.19 to 6.25 ug/ml after 24 hrs by time-kill assay; assay type: functional, organism-based
# [29] = test system: Candida tropicalis; assay: Antifungal activity against Candida tropicalis isolate 1 in antibiotic medium 3 assessed as paradoxical growth at 12.5 ug/ml after 24 hrs by broth microdilution method; assay type: functional, organism-based
# [30] = test system: Candida tropicalis; assay: Antifungal activity against 10^5 CFU/ml Candida tropicalis isolate 4 in RPMI 1640 medium at =< 0.09 ug/ml after 24 hrs followed by incubation in drug free medium for 48 hrs by broth microdilution method; assay type: functional, organism-based
# [31] = test system: Candida tropicalis; assay: Antifungal activity against 10^5 CFU/ml Candida tropicalis isolate 12 in RPMI 1640 medium at 12.5 ug/ml treated for 24 hrs followed by incubation in drug free medium for 48 hrs by broth microdilution method; assay type: functional, organism-based
# [32] = test system: Candida tropicalis; assay: Antifungal activity against 10^5 CFU/ml Candida tropicalis isolate 10 in RPMI 1640 medium at 12.5 ug/ml treated for 24 hrs followed by incubation in drug free medium for 48 hrs by broth microdilution method; assay type: functional, organism-based
# [33] = test system: Candida tropicalis; assay: Antifungal activity against 10^5 CFU/ml Candida tropicalis isolate 9 in RPMI 1640 medium at 12.5 ug/ml treated for 24 hrs followed by incubation in drug free medium for 48 hrs by broth microdilution method; assay type: functional, organism-based
# [34] = test system: Candida tropicalis; assay: Antifungal activity against 10^5 CFU/ml Candida tropicalis isolate 3 in RPMI 1640 medium at 12.5 ug/ml treated for 24 hrs followed by incubation in drug free medium for 48 hrs by broth microdilution method; assay type: functional, organism-based
# [35] = test system: Candida tropicalis; assay: Antifungal activity against 10^5 CFU/ml Candida tropicalis isolate 1 in RPMI 1640 medium at 12.5 ug/ml treated for 24 hrs followed by incubation in drug free medium for 48 hrs by broth microdilution method; assay type: functional, organism-based
# [36] = test system: Candida tropicalis; assay: Antifungal activity against > 2 x 10^7 CFU/ml Candida tropicalis isolate 12 in antibiotic medium 3 assessed as partial growth after 24 hrs by broth microdilution method; assay type: functional, organism-based
smiles,measurement,setting,value
CC[C@H](C)C[C@H](C)CCCCCCCCC(=O)N[C@H]1C[C@@H](O)[C@@H](NCCN)NC(=O)[C@@H]2[C@@H](O)CCN2C(=O)[C@H]([C@H](O)CCN)NC(=O)[C@H]([C@H](O)[C@@H](O)c2ccc(O)cc2)NC(=O)[C@@H]2C[C@@H](O)CN2C(=O)[C@H]([C@@H](C)O)NC1=O [CASPOFUNGIN],Activity,[1],inactive
same,Activity,[2],inactive
same,Activity,[3],inactive
same,Activity,[4],inactive
same,Activity,[5],inactive
same,Activity,[6],inactive
same,MIC,[7],0.024 µg/mL
same,MIC,[8],0.024 µg/mL
same,MIC,[9],0.024 µg/mL
same,MIC,[10],0.024 µg/mL
same,MIC,[11],0.024 µg/mL
same,MIC,[12],0.024 µg/mL
same,MIC,[13],0.024 µg/mL
same,MIC,[14],0.024 µg/mL
same,MIC,[15],0.024 µg/mL
same,MIC,[16],0.024 µg/mL
same,MIC,[17],0.024 µg/mL
same,Activity,[18],Active
same,Activity,[19],inactive
same,Activity,[20],inactive
same,Activity,[21],inactive
same,Activity,[22],Active
same,Activity,[23],inactive
same,Activity,[24],Active
same,Activity,[25],inactive
same,Activity,[26],inactive
same,Activity,[27],inactive
same,Activity,[28],Active
same,Activity,[29],inactive
same,Activity,[30],Active
same,Activity,[31],inactive
same,Activity,[32],inactive
same,Activity,[33],inactive
same,Activity,[34],inactive
same,Activity,[35],inactive
same,Activity,[36],inactive
